Test results: ChEMBL document CHEMBL4184178, “Identification of potent lysophosphatidic acid receptor 5 (LPA5) antagonists as potential analgesic agents” (Bioorg Med Chem, 2018)
Calls of active or inactive are those of the source. No cut-off for these calls is given here.

Columns and labels:
[1] = target: Lysophosphatidic acid receptor 5 (Rattus norvegicus, UniProt D4ADR1); assay: Antagonist activity at rat LPA5 receptor expressed in CHO cells assessed as inhibition of LPA-induced cAMP accumulation after 30 mins by Lance Ultra assay; format: cell-based
[2] = Plasma concentration in rat at 60 mg/kg, ip measured after 0.5 hrs by LC-MS analysis; format: ADME, organism-based
[3] = Drug uptake in rat brain at 60 mg/kg, ip measured after 0.5 hrs by LC-MS analysis; format: ADME, organism-based; conditions: read-out: Drug uptake
[4] = Brain to plasma partition coefficient, Kp of the compound in rat at 60 mg/kg, ip measured after 0.5 hrs by LC-MS analysis; format: ADME, organism-based
Rattus norvegicus [5] = assay: Analgesic effect in rat chronic constriction injury model assessed as reduction in mechanical allodynia at 60 mg/kg, ip by Von Frey test; format: functional, organism-based
Rattus norvegicus [6] = assay: Analgesic effect in rat chronic constriction injury model assessed as reduction in mechanical allodynia at 10 mg/kg, ip by Von Frey test; format: functional, organism-based

Chain of Lysophosphatidic acid receptor 5 (D4ADR1 whole entry): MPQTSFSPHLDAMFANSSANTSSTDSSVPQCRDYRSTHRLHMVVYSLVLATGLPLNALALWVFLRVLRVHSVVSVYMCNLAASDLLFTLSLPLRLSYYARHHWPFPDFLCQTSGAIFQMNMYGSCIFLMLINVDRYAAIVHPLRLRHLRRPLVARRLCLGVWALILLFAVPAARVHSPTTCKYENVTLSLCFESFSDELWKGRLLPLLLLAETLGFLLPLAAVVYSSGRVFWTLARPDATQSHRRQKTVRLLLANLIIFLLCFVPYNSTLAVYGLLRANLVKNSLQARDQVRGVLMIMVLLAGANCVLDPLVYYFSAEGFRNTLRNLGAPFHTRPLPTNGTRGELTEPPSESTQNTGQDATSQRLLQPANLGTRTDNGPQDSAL

COc1cc2c(C(=O)N3CCCCCC3)cn(-c3ccc(F)cc3)c(=O)c2cc1OC
IC50 [1]: > 3000 nM

CCCCCCN(C)C(=O)c1cn(-c2ccc(OCC)cc2)c(=O)c2cc(OC)c(OC)cc12
IC50 [1]: > 10000 nM

COc1cc2c(C(=O)N3CCCCCC3)cn(-c3ccc(C)c(C)c3)c(=O)c2cc1OC
IC50 [1]: 720 nM

CCc1ccc(-n2cc(C(=O)N3CCCCCC3)c3cc(OC)c(OC)cc3c2=O)cc1
IC50 [1]: 570 nM

CCN1CCc2ccc(-n3cc(C(=O)N4CCCCCC4)c4cc(OC)c(OC)cc4c3=O)cc21
IC50 [1]: 110 nM

CCOc1ccc(-n2cc(C(=O)N3CCC(F)CC3)c3cc(OC)c(OC)cc3c2=O)cc1
IC50 [1]: 750 nM

COc1cc2c(C(=O)N3CCCCCC3)cn(-c3ccc(C(N)=O)cc3)c(=O)c2cc1OC
IC50 [1]: > 30000 nM

COc1cc2c(C(=O)N3CCCCCC3)cn(-c3cccc(N(C)C)c3)c(=O)c2cc1OC
IC50 [1]: 130 nM

COc1cc2c(C(=O)N3CCCCCC3)cn(C(C)C)c(=O)c2cc1OC
IC50 [1]: > 30000 nM

CCN1CCc2ccc(-n3cc(C(=O)N4CCC(F)CC4)c4cc(OC)c(OC)cc4c3=O)cc21
IC50 [1]: 120 nM | concentration at 0.5 h [2]: 9.06 µM | concentration at 0.5 h [3]: 1.22 µM | Kp at 0.5 h [4]: 0.13 | Activity (Rattus norvegicus [5]): Active | Activity (Rattus norvegicus [6]): inactive

CCOc1ccc(-n2cc(C(=O)N3CCCCCC3)c3cc(OC)c(OC)cc3c2=O)cc1
IC50 [1]: 1800 nM
